Peptide text beside a SMILES is read from it.
Key:
[1] = molecular target: T1, SpSte2 with SpSxa2 or other fungal proteases (Schizosaccharomyces pombe, UniProt Q00619); test: Dose-response of SpSte2 fluorescent strains with cognate or noncognate proteases; assay type: cell-based
T1 construct: we cloned codon-optimized open reading frames (ORFs) of all 5 proteases and GPCRs; expressed in transfected cells; host or cells: S. cerevisiae strains from yTC370 (yTC530, yTC529, yTC531-534, yTC525, yTC526); two genome-integrated pTDH3-SpSTE2 copies
T1 sequence (Q00619 1-348): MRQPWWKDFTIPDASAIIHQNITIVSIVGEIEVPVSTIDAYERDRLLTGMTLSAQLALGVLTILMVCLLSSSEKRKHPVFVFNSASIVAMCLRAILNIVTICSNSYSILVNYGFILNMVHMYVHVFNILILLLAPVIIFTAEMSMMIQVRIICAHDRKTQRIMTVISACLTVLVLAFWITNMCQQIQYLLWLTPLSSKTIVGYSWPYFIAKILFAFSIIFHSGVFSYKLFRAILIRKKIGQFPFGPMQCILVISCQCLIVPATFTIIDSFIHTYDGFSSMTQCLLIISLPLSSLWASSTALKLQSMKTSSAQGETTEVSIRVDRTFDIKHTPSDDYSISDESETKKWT
Method: (§1) Glycerol stocked strains were streaked out on YPD plate and incubated for 2 days. Three colonies were picked, replated on YPD plate, incubated for 1 day, and then stored at 4 °C. For activation assays, a small scoop of yeast patch from the 3 colonies was resuspended in ~4 ml of YPD medium and incubated overnight. Overnight cells were seeded at an optical density at 600 nm (OD600) of 0.15 (as measured in 96-well plate at 200-μl volume) in SC/Glc medium after washing twice with sterile Mili-Q H2O. GPCR activity and response to increasing concentrations of synthetic peptide ligands were measured in strains carrying appropriate genome-integrated components in 96-well microtiter plates in 200-μl total volume and cultured at 30 °C and 800 rpm, unless otherwise stated. All measurements were performed in biological triplicate. Culture turbidity (OD600) and fluorescence for ymTurquoise2 (excitation, 439 nm; emission, 475 nm; gain, 75) were measured after 0 and 8 h using an Infinite 200 Pro plate reader (Tecan). Dose–response curve was measured at 11 different concentrations of the appropriate synthetic peptide ligand with a constant dilution factor and a no-peptide, H2O control. The absorbance at 600 nm normalized fluorescence values and log10-transformed peptide concentrations were fit to a 4-parameter nonlinear regression model using Prism (GraphPad) to extract GPCR-specific values for basal activation, maximal activation, EC50, and the Hill coefficient.
(§2) To validate the effect of peptide proteases on their complementary and noncomplementary peptides (Table S8), from the parent strain yTC370, we engineered 30 strains (Table S1).
(§3) Next, to validate whether we can control the extent of peptide cleavage by their cognate proteases by modulating the concentration of expressed protease, we constitutively expressed proteases under promoters of different expression levels. For the purpose of determining the protease’s specificity in previous section (S1), all proteases were expressed under pCCW12, which is one of the strongest characterized promoters in yeast. Here, we introduced 2 additional promoters to convey medium and low expression levels of the proteases. We selected pRPL18B for medium expression and pRAD27 for low expression level. We cloned these promoters upstream from protease ORFs in Golden Gate cassette plasmids, assembled the protease cassettes with their cognate GPCRs and fluorescent readout, and integrated into parent yTC370 strain (see Materials and Methods and Table S1). Then, we compared dose–response curves of strains responding to their cognate peptides without the protease or with protease at 3 different expression levels (low, medium, and high) (S2).

[2] = tested on: SoSte2 with SoSxa2 or other fungal proteases; test: Dose-response of SoSte2 fluorescent strains with cognate or noncognate proteases; assay type: cell-based, Schizosaccharomyces octosporus
Chain of SoSte2 with SoSxa2 or other fungal proteases (as listed by the source): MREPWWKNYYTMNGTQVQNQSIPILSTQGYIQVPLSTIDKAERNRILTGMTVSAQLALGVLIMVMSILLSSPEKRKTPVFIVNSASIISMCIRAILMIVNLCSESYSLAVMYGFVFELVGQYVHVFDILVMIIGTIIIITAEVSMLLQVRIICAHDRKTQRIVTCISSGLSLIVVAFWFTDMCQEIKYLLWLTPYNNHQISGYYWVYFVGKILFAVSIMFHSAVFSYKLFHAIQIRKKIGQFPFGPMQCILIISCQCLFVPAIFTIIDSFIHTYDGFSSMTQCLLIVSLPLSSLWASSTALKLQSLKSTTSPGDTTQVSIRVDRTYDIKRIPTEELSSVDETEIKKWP
Method: as §1, with “coefficient. […]” for “coefficient.”
Next, to validate whether we can control the extent of peptide cleavage by their cognate proteases by modulating the concentration of expressed protease, we constitutively expressed proteases under promoters of different expression levels. […] We cloned these promoters upstream from protease ORFs in Golden Gate cassette plasmids, assembled the protease cassettes with their cognate GPCRs and fluorescent readout, and integrated into parent yTC370 strain (see Materials and Methods and Table S1). […]

[3] = tested on: SjSte2 with SjSxa2 or other fungal proteases; test: Dose-response of SjSte2 fluorescent strains with cognate or noncognate proteases; assay type: cell-based, Schizosaccharomyces japonicus
Chain of SjSte2 with SjSxa2 or other fungal proteases (as listed by the source): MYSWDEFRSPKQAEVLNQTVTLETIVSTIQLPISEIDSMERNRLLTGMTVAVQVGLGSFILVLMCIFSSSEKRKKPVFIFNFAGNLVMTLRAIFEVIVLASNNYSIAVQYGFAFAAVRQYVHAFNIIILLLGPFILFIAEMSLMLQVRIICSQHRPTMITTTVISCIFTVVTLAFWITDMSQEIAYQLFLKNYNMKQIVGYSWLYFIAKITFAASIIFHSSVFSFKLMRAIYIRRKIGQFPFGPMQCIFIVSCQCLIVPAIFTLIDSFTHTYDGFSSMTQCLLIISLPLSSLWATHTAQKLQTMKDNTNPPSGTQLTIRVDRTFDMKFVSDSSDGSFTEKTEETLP
Method: as §1, §2, §3

[4] = noncomplementary proteases, pCCW12, fluorescent readout

CC(C)C[C@H](NC(=O)[C@H](CC(N)=O)NC(=O)[C@@H]1CCCN1C(=O)[C@H](CCCNC(=N)N)NC(=O)[C@H](CC(=O)O)NC(=O)[C@@H]1CCCN1C(=O)[C@H](CC(N)=O)NC(=O)[C@@H](NC(=O)[C@H](Cc1ccccc1)NC(=O)[C@@H](NC(=O)[C@H](CC(N)=O)NC(=O)[C@H](Cc1c[nH]c2ccccc12)NC(=O)[C@H](CO)NC(=O)[C@H](CCC(N)=O)NC(=O)[C@H](Cc1ccc(O)cc1)NC(=O)[C@H](C)NC(=O)[C@H](CCCNC(=N)N)NC(=O)[C@H](CC(C)C)NC(=O)[C@H](Cc1ccccc1)NC(=O)[C@H](CC(=O)O)NC(=O)[C@H](C)NC(=O)[C@H](Cc1ccc(O)cc1)NC(=O)[C@@H](N)[C@@H](C)O)[C@@H](C)O)C(C)C)C(=O)O [SpPep] (H-TYADFLRAYQSWNTFVNPDRPNL-OH; N-terminus and C-terminus assumed)
effect of cognate protease SpSxa2 on response ([1]; SpSxa2 under pCCW12 (high expression), fluorescent readout, 8 h): practically completely attenuated the response | EC50 shift with low SpSxa2 expression ([1]; SpSxa2 under pRAD27 (low expression), fluorescent readout, 8 h): did not show notable apparent EC50 shift | EC50 shift with medium SpSxa2 expression ([1]; SpSxa2 under pRPL18B (medium expression), fluorescent readout, 8 h): ~2 orders of magnitude | cleavage by ScBar1 and CaBar1 [1, 4]: did not cleave | apparent EC50 with complementary protease SpSxa2 ([1]; out of the measurable peptide concentration range, pCCW12, fluorescent readout): > 100 µM | apparent EC50 shift with noncomplementary proteases SjSxa2 and SoSxa2 ([1]; pCCW12, fluorescent readout): between half and one order of magnitude

TYEDFLRVYKNWWSFQNPDRPDL [SoPep, S. octosporus pheromone peptide, synthetic]
EC50 shift with low and medium SoSxa2 expression ([2]; SoSxa2 under pRAD27 or pRPL18B, compared to strain with no protease): did not notably shift the apparent EC50 | cleavage by ScBar1 and CaBar1 [2, 4]: did not cleave | apparent EC50 shift with noncomplementary proteases SjSxa2 and SpSxa2 ([2]; pCCW12, fluorescent readout): between half and one order of magnitude

VSDRVKQMLSHWWNFRNPDTANL [SjPep, S. japonicus pheromone peptide, synthetic]
apparent EC50 shift with complementary protease SjSxa2 ([3]; SjSxa2 under pCCW12 (high expression), fluorescent readout, 8 h): over one order of magnitude | EC50 shift with low SjSxa2 expression ([3]; SjSxa2 under pRAD27 (low expression)): did not affect EC50 | apparent EC50 shift with medium and high SjSxa2 expression ([3]; SjSxa2 under pRPL18B and pCCW12, out of measurable range (>100 μM)): more than 2 orders of magnitude | EC50 ([3]; out of the measurable peptide concentration range, pCCW12, fluorescent readout, read-out: apparent EC50 with complementary protease SjSxa2): > 100 µM

From PMC10084949, “Peptide Variant Detection by a Living Yeast Biosensor via an Epitope-Selective Protease” (Biodesign Research, 2023)
